Molecules are shown by their SMILES. pEC50: −log10 of the molar value. Some results are limits rather than exact numbers.

The subject of this experiment is eNOS promoter. As to the kind of experiment: Activation of eNOS transcription (eNOS promoter-luciferase reporter, human endothelial cell line). The class given is cell-based. The settings on record: human endothelial cell line stably transfected with eNOS promoter-luciferase construct, 18 h incubation, determined graphically; read-out: EC50 values of transcription induction ratios (TIR). The protocol:
A) Activation of eNOS Transcription
Activation of eNOS transcription was measured as described in detail by Li et al., “Activation of protein kinase C alpha and/or epsilon enhances transcription of the human endothelial nitric oxide synthase gene”, Mol. Pharmacol. 53 (1998) 630. Briefly, a 3.5 kB long fragment 5′ of the starting codon of the eNOS gene was cloned, sequenced and cloned in firefly luciferase expression plasmids to monitor activation of the eNOS promoter by reporter gene activity. A human endothelial cell line stable transfected and expressing this promoter-reporter construct was used for compound testing. Cells were incubated for 18 h with the compounds.
All compounds were dissolved in sterile dimethyl sulfoxide (DMSO). A final concentration of 0.5% DMSO in complete medium was allowed. Induction of reporter gene expression in these cells was measured using a standard luciferase assay system (Promega, Cat. No. E150) according to the manufacturer's instructions. Luciferase induction in cells incubated with compounds were compared to those incubated with solvent alone. The ratio of both activities (transcription induction ratio, TIR) was plotted as a function of compound concentration. Typically, TIR values started at low concentrations at a ratio of 1, indicating no compound effect, and extended up to a maximum TIR value TIR(max) which indicates the increase of the eNOS transcription. EC50 values of transcription induction ratios as a function of compound concentration were determined graphically.
For orientation: Reporter assays use an easily measured gene product as a stand-in for the process of interest.
In the case of `COC(=O)O/N=C(\N)c1ccc2[nH]c(-c3ccc(F)cc3)nc2c1` [Example 6, 2-(4-Fluoro-phenyl)-N-methoxycarbonyl-oxy-1H-benzoimidazole-5-carboxamidine], the pEC50 was more than 6.30.
As for `Cc1ccc(-c2nc3cc(/C(N)=N/O)ccc3[nH]2)cc1` [Example 4, N-Hydroxy-2-p-tolyl-1H-benzoimidazole-5-carboxamidine], the pEC50 is more than 6.30.
The same measure for `CCOC(=O)O/N=C(\N)c1ccc2[nH]c(-c3ccc(F)cc3)nc2c1` [Example 5, 2-(4-Fluoro-phenyl)-N-ethoxycarbonyl-oxy-1H-benzoimidazole-5-carboxamidine]: more than 6.30; for `CC(C)OC(=O)O/N=C(\N)c1ccc2[nH]c(-c3ccc(F)cc3)nc2c1` [Example 7, 2-(4-Fluoro-phenyl)-N-isopropyloxycarbonyl-oxy-1H-benzoimidazole-5-carboxamidine]: more than 6.30.

The values above are taken from patent publication US8168665B2, “Substituted 2-phenyl-benzimidazoles and their use as pharmaceuticals” (Sanofi-Aventis, priority 2006, dated 2012).
